# Tested on: paw of rats
# Experiment: Anti-inflammatory test: carrageenan-induced rat paw swelling (plethysmography), oral
# Type: in vivo
# Settings: oral route one hour before carrageenan injection, swelling determined 4 hours after injection, versus control group, dose not given
# Protocol: The compounds to be tested are given as freshly prepared solutions or suspensions by oral route one hour before injecting the paw of rats with carrageenan which is a known inflammatory agent.
# The inflammatory agent (carrageenan) either in solution or suspension is then injected into the plantar tissue of the right hind paw of each rat, the left paw remaining untreated and serving as control. Each animal receives, for example, 0.05 ml of an aqueous solution containing 1% by weight of carrageenan and 0.9% of sodium chloride.
# 4 Hours after the injection of the inflammatory agent, the importance of swelling is determined by plethysmography and is expressed as a percent of the volume of the control paw.
# The anti-inflammatory effect expressed as a percentage of inhibition is obtained by comparison between rats treated with the anti-inflammatory compound and a control group of rats.
row,Compound,% inhibition of acute oedema
1,"CCc1cccc(N2C(c3ccc(Cl)cc3)=NS(=O)(=O)c3cnccc32)c1 [Example 3, 3-parachlorophenyl-4-(3'-ethylphenyl)-4H-pyrido-[4,3-e]-1,2,4-thiadiazine-1,1-dioxide]",60%
2,"COc1cccc(N2C(c3ccccc3Cl)=NS(=O)(=O)c3cnccc32)c1 [Example 4, 3-orthochlorophenyl-4-(3-methoxyphenyl)-4H-pyrido-[4,3-e]-1,2,4-thiadiazine-1,1-dioxide]",40%
3,"O=S1(=O)N=C(c2ccccc2)N(c2cccc(C(F)(F)F)c2)c2ccncc21 [Example 1, 3-phenyl-4-metatrifluoromethylphenyl-4H-pyridino-[4,3-e]-1,2,4-thiadiazine-1,1-dioxide]",53.6%
4,"O=S1(=O)N=C(c2ccc(Cl)cc2)N(c2cc(Cl)cc(Cl)c2)c2ccncc21 [Example 2, 3-parachlorophenyl-4-(3',5'-dichlorophenyl)-4H-pyridino-[4,3-e]-1,2,4-thiadiazine-1,1-dioxide]",57%
